Assay results: patent EP0248151A1, “Pantothenic acid as an antimutagenic agent” (SUNTORY LIMITED, priority 1983, dated 1984)

What was measured:
[1] = tested on: St TA l00 or St TA 98 strain; test: Ames test (preincubation method), inactivation of mutagenicity of carcinogens/mutagens by pantothenates, without S9; format: cell-based, Salmonella typhimurium
Protocol: (§1) • (i) Method: The preincubation method shown in Sugimura & Nagao: Chemical Mutagens, Vol. 6, page 4l, l98l was used. • (ii) Microorganism: Histidine requiring Salmonella typhimurium strains TA l00 and TA 98 (hereunder TA l00 and St TA 98) were used. • (iii) Preparation of samples • a) MNNG: To MNNG samples (l µg/plate), coenzyme A was added in amounts of 0.0l µM, 0.l µM and l.0 µM/plate. • b) Benzo[a]pyrene: To benzo[a]pyrene samples (l0 µg/plate), coenzyme A was added in amounts of 0.0009, 0.009 and 0.09µM/plate. • (iv) Measuring mutagenicity
• (i) Method: See Example l. • (ii) Microorganism: See Example l. • (iii) Preparation of samples • a) The carcinogenic or mutagenic substances used in Example 3 and their concentrations are listed in Table 5. [formula] • b) Adding pantothenates (Na and Ca salts) Pantothenates were added to each of the carcinogenic or mutagenic samples in amounts of 0, 0.005, 0.05, and 5.0 µM/plate. • (iv) Measuring mutagenicity To l00 µl of each of the samples prepared in (iii) a), 500 µl of l00 mM sodium phosphate buffer (pH 7.4) was added. Thereafter, l00 µl of a culture of St TA l00 or St TA 98 strain was added as indicated in Table 6. [formula] The respective mixtures were shaken for 20 minutes at 37°C. After adding 2.5 ml of a soft agar solution, the mixtures were spread on minimum glucose agar plates which had been supplemented with 0.l µM/plate of histidine for causing several […] of the cells. After incubation at 37°C for 48 hours, the number of colonies on the plates was counted as revertants.

[2] = tested on: Salmonella typhimurium TA l00; test: Ames test (preincubation method), inactivation of mutagenicity of MNNG, without S9; format: cell-based
Protocol: (§2) One of the methods for determining carcinogenicity that have recently been established is the Salmonella test (also known as the Ames test) that uses the requirement for histidine as an evaluation index (Ames, B.N. et al.: Mutation Res., Vol. 3l, 347, l975). […] Therefore, the present inventors chose to use the Ames test as a means for screening various compounds to discover cancer control substances.
as §1
(§3) To l00 µl of each of the samples prepared in (iii) a), 500 µl of l00 mM sodium phosphate buffer (pH 7.4) and l00 µl of a culture of St TA l00 were added. To l00 µl of each of the samples prepared in (iii) b), 500 µl of S9 mix (rat liver homogenate) and l00 µl of a culture of TA 98 were added. […] After incubation at 37°C for 48 hours, the number of colonies on the plates was counted as revertants. […]

[3] = tested on: Salmonella typhimurium TA 98; test: Ames test (preincubation method), inactivation of mutagenicity of benzo[a]pyrene, with S9 mix (rat liver homogenate); format: cell-based
Protocol: as §2, §1, §3

CC(C)(CO)[C@@H](O)C(=O)NCCC(=O)[O-].[Na+] [Sodium pantothenate, sodium pantothenate]
inactivation of the mutagenicity of methylglyoxal ([1]; 18 mols of sodium pantothenate added to 1 mol of methylglyoxal): 77% | inactivation of the mutagenicity of adriamycin ([1]; 2273 mols of sodium pantothenate added to 1 mol of adriamycin): 59% | inactivation of the mutagenicity of AF-2 ([1]; 6250 mols of sodium pantothenate added to 1 mol of AF-2): 58%

Cc1ncc(COP(=O)(O)O)c(C=O)c1O [Pyridoxal-5′-phosphoric acid, pyridoxal-5′-phosphoric acid]
inhibition of the mutagenicity of MNNG ([2]; 150 mols of compound added to 1 mol of MNNG): about 50% | inactivation of the mutagenicity of benzo[a]pyrene ([3]; 25 mols of compound added to 1 mol of benzo[a]pyrene): about 80%

calcium pantothenate
inactivation of the mutagenicity of MNU ([1]; 6 mols of calcium pantothenate added to 1 mol of MNU): completely | inactivation of the mutagenicity of MNNG ([1]; 73 mols of calcium pantothenate added to 1 mol of MNNG): 48%

CC(C)(COP(=O)(O)OP(=O)(O)OC[C@H]1O[C@@H](n2cnc3c(N)ncnc32)[C@H](O)[C@@H]1OP(=O)(O)O)[C@@H](O)C(=O)NCCC(=O)NCCS [Coenzyme A, coenzyme A]
inhibition of the mutagenicity of MNNG ([2]; 150 mols of coenzyme A added to 1 mol of MNNG): completely | inactivation of the mutagenicity of benzo[a]pyrene ([3]; 10 mols of coenzyme A added to 1 mol of benzo[a]pyrene): about 90%
